This is an account of results in patent US20200325178A1, “PEPTIDE NUCLEIC ACID MOLECULES FOR TREATMENT OF GRAM POSITIVE BACTERIAL INFECTION” (priority 2017, published 2020).

The subject of series [1] is MSSA clinical isolates and ATCC strains. In words: MIC and MBC against MSSA clinical isolates and ATCC strains. Type of series: cell-based, Staphylococcus aureus. On the set-up: MIC: unit not given here. The protocol:
(§1) Bioscreen-C instrument was used to detect the MIC and MBC of PNA-CPP derivatives against S. aureus MSSA strains. Different concentrations of PNA-CPP derivatives were prepared in 10 mM of sodium bicarbonate buffer pH-7.4 and added to ˜5.0 Log 10 CFUs in a Honey comb Bioscreen-C plate.
After the growth curve assays, the number of colony forming units (CFU) were counted to determine the MIC and MBC of each PNA-CPP derivative against MSSA.
Minimum inhibitory concentration (MIC) analyses were performed as described in Clinical and Laboratory Standards Institute, Methods for Dilution Antimicrobial Susceptibility Tests for Bacteria that Grow Aerobically, 7th ed.; Approved Standard M7-A7; CLSI: Wayne, Pa., USA, 2006; volume 26, No. 2. Vancomycin and Oxacillin were used as controls. MIC was determined as the lowest concentration of agent that inhibits bacterial growth detected at A420-580 nm.

Series [2] has as its system S. aureus (ATCC BAA-1556). The experiment in a line: Murine thigh infection model. It is filed as in vivo. Particulars: neutropenic CD-1 mice; 25 mg/kg, 0.2 ml SC, +1 hr; 24 hrs. The protocol: Female 5-6 week old CD-1 (18-22 gm) were used in this study. Mice were quarantined for 48 hours before use and housed in groups of 5 with free access to food and water during the study.
The animals were made neutropenic by administration of cyclophosphamide on Days −4 and −1. On Days −4 150 mg/kg of cyclohsphamide administered by intraperitoneal route and 100 mg/kg was administered on Days −1. Days listed are referenced from the date of infection (study day-Day 0).
On Day 0, animals were inoculated intramuscularly (0.1 ml/thigh) with ˜1×10^5 CFU/mouse of S. aureus (ATCC BAA-1556) into right thigh. […] Group-3 of mice were administered with vancomycin at 25 mg/kg via subcutaneous route. Group-4 of mice administered with buffer and group-5 used as the inoculation control.
Mice were euthanized by CO2 inhalation and thighs were removed, and placed in 2 ml of sterile PBS, homogenized, serially diluted and plated to determine the CFU counts. Plates were incubated 18-24 hours and CFUs were counted.
Colony were counted and the number of colonies is converted to CFU/thigh by multiplying the number of colonies by the volume of the thigh homogenate spotted and the dilution at which the colonies were counted (5-50 colonies/spot). All count data were transformed into logo CFU/thigh for calculation of means and standard deviations.

Series [3] has as its system MRSA clinical isolates and ATCC strains. In words: MIC and MBC against MRSA clinical isolates and ATCC strains. It is filed as cell-based, Staphylococcus aureus. On the set-up: unit not given here. The protocol:
Bioscreen-C instrument was used to detect the MIC and MBC of PNA-CPP derivatives against S. aureus MRSA strains. Different concentration of PNA-CPP derivatives were prepared in 10 mM of sodium bicarbonate buffer pH-7.4 and added to ˜5.0 Log 10 CFUs in a Honey comb Bioscreen-C plate.
After the growth curve assays, the number of colony forming units (CFU) were counted to determine the MIC and MBC of each PNA-CPP derivative against MRSA.
Minimum inhibitory concentration (MIC) analyses were performed as described in Clinical and Laboratory Standards Institute, Methods for Dilution Antimicrobial Susceptibility Tests for Bacteria that Grow Aerobically, 7th ed.; Approved Standard M7-A7; CLSI: Wayne, Pa., USA, 2006; volume 26, No. 2. […] MIC was determined as the lowest concentration of agent that inhibits bacterial growth detected at A420-580 nm.

Another series concerns S. aureus MSSA strains. In words: Bioscreen-C dose response growth curve of MSSA over 24 hours. It is filed as cell-based, Staphylococcus aureus. As to conditions: HCl salts, doses from 100 μg downwards, 10 mM sodium bicarbonate buffer pH-7.4, OD 420-580 nm. The protocol:
as §1
Compound I-V were assayed against MSSA. FIG. 12-16 show a dose response growth curve of MSSA in presence of increasing concentrations of Compound I-HCl (FIG. 12), Compound II-HCl (FIG. 13), Compound III-HCl (FIG. 14), Compound IV-HCl (FIG. 15), and Compound V-HCl (FIG. 16), determined in a Bioscreen-C spectrophotometer.

For another series, the system named is MRSA. The experiment in a line: In vitro assay of emergence of resistance, MRSA, 8 days. It is filed as cell-based, S. aureus. Particulars: 6.25 μg (twice MBC) in one ml Mueller Hinton broth, 37° C., through Day 8. The protocol: (§2) To determine the development of resistance in MRSA and MSSA strains against Compound I-HCl and Compound IV-HCl, an in vitro assay was performed. Twice the amount of MBC of Compound I-HCl (6.25 μg) and Compound IV-HCl (6.25 μg) were mixed with ˜5.0 log 10 CFUs in one ml of Mueller Hinton broth and incubated for 8 days at 37° C. Eight tubes of culture were used for each drug and bacterial strains. At 24 hours of interval, culture tubes were centrifuged and spent media were replaced with fresh media in presence of Compound I-HCl and Compound IV-HCl and further incubated to observe the growth of S. aureus strains. At 24 hours interval, one set of culture tube exposed to drugs were selected and a fraction of the culture used to plate on agar plates to observe the reduction of CFU counts as compared to untreated control. The rest of the culture samples were allowed to grow without any drug for additional 24 hours to observe the growth of S. aureus strains. One set of culture tubes without drug was used as the positive control.

The next series has as its system MSSA. The experiment in a line: In vitro assay of emergence of resistance, MSSA, 8 days. It is filed as cell-based, S. aureus. Particulars: 6.25 μg (twice MBC) in one ml Mueller Hinton broth, 37° C., through Day 8. The protocol: as §2
The assays above were also performed using MSSA strains and Compounds I and IV.

A short description of series [4]: Single ascending intravenous dose tolerability (MTD) in mice. Type of series: in vivo. As to conditions: 10 mg/kg single intravenous bolus dose. The protocol: Single ascending intravenous (IV) dose study was performed to determine tolerability of the drug in mice.
Initially, Compound I-HCl and Compound IV-HCl were administered with a 10 mg/kg intravenous bolus dose using a 10 mL/kg dose volume (0.2 mL) and observed the effects before proceeding to the next higher dose. […] However, higher concentration (>15 mg/kg) had shown adverse effect and death in mice within 30 mins of administration of the drug.

[5] abbreviates: MSSA table, isolate MRSA#16 [sic].
The mark [6] stands for this setting: MSSA table, isolate MRSA#25 [sic].
Setting [7] is: MSSA table, isolate MRSA#27 [sic].
[8] abbreviates: MSSA table, isolate MRSA#34 [sic].
Where [9] appears, read: MSSA table, isolate MRSA#38 [sic].
Setting [10] is: MSSA table, isolate MRSA#57 [sic].
Where [11] appears, read: MSSA table, isolate MRSA#60 [sic].
Where [12] appears, read: MSSA table, isolate printed MRSA#49.
The mark [13] stands for this setting: MSSA table, isolate printed MRSA#61.

With `Cc1onc(-c2ccccc2)c1C(=O)N[C@@H]1C(=O)N2[C@@H]1SC(C)(C)[C@@H]2C(=O)O` [Oxacillin, reference compound], the MIC in series [1] (setting [5]) is recorded as 2 ∞g; in series [1] (setting [6]) it was 2 ∞g; in series [1] (setting [7]), 2 ∞g; in series [1] (setting [8]), 2 ∞g; in series [1] (setting [9]), 2 ∞g; in series [1] (MSSA table, isolate MRSA#55), 2 ∞g. Also, the MIC is listed as 4 ∞g in series [1] (setting [10]); 2 ∞g in series [1] (setting [11]); 2 ∞g in series [1] (setting [12]); 2 ∞g in series [1] (setting [13]); <2 ∞g in series [1] (strain BAA 1721).

Take `CN[C@H](CC(C)C)C(=O)N[C@H]1C(=O)N[C@@H](CC(N)=O)C(=O)N[C@H]2C(=O)N[C@H]3C(=O)N[C@H](C(=O)N[C@H](C(=O)O)c4cc(O)cc(O)c4-c4cc3ccc4O)[C@H](O)c3ccc(c(Cl)c3)Oc3cc2cc(c3O[C@@H]2O[C@H](CO)[C@@H](O)[C@H](O)[C@H]2O[C@H]2C[C@](C)(N)[C@H](O)[C@H](C)O2)Oc2ccc(cc2Cl)[C@H]1O` [Vancomycin, reference compound]: the MIC in series [1] (setting [5]) is reported as 5 ∞g; in series [1] (setting [6]), 10 ∞g; in series [1] (setting [7]), 10 ∞g; in series [1] (setting [8]), 5 ∞g; in series [1] (setting [9]), 10 ∞g; in series [1] (MSSA table, isolate MRSA#55), 10 ∞g. In addition, the MIC in series [1] (setting [10]) is on record as 20 ∞g; in series [1] (setting [11]), 10 ∞g; in series [1] (setting [12]), 10 ∞g; in series [1] (setting [13]), 5 ∞g; in series [1] (strain BAA 1721), 10 ∞g. The “Mean Log 10 CFU/Thigh” value in series [2] is listed as 4.39 Log 10 CFU/Thigh. Moreover, the “Mean Log 10 Change vs. 1 hr” value in series [2] is given as −1.23 Log 10. In series [2], the “Mean Log 10 Change vs. 24 hr (vehicle)” value is −4.14 Log 10.

On to “Compound II: PNA-CPP conjugate: PNA SEQ ID NO: 51, AEA linker, CPP BXRXRRXRRXRRXR; FIG. 2 (CGTCATACGCGGTCC; all peptide nucleic acid (PNA); PNA conjugated to cell-penetrating peptide BXRXRRXRRXRRXR via AEA linker, end not given here)”, for which the MBC in series [3] (isolate MRSA#1), in series [3] (isolate MRSA#3), in series [3] (isolate MRSA#6), in series [3] (isolate MRSA#15), in series [3] (isolate MRSA#28) and in series [3] (isolate MRSA#31) was 3.25 in each case. Besides, the MBC was 1.56 in series [3] (isolate MRSA#37); 3.25 in series [3] (isolate MRSA#39); 1.56 in series [3] (isolate MRSA#42); 1.56 in series [3] (isolate MRSA#43); 1.56 in series [3] (strain USA 300); 3.25 ∞g in series [1] (setting [5]). The MBC is recorded as 3.25/3.25 ∞g in series [1] (setting [6]); 1.56 ∞g in series [1] (setting [7]); 3.25/3.25 ∞g in series [1] (setting [8]); 3.25/3.25 ∞g in series [1] (setting [9]); 3.25/3.25 ∞g in series [1] (MSSA table, isolate MRSA#55); 3.25 ∞g in series [1] (setting [10]). The MBC in series [1] (setting [11]) is 1.56 ∞g; in series [1] (setting [12]), 3.25/3.25 ∞g; in series [1] (setting [13]), 1.56 ∞g; in series [1] (strain BAA 1721) it was 1.56 ∞g. Further, the MIC in series [3] (isolate MRSA#1), in series [3] (isolate MRSA#3), in series [3] (isolate MRSA#6), in series [3] (isolate MRSA#15), in series [3] (isolate MRSA#28) and in series [3] (isolate MRSA#31) was 1.56 each time. For the same molecule, the MIC is 0.78 in series [3] (isolate MRSA#37); 1.56 in series [3] (isolate MRSA#39); 0.78 in series [3] (isolate MRSA#42); 0.78 in series [3] (isolate MRSA#43); 0.78 in series [3] (strain USA 300); 1.56 ∞g in series [1] (setting [5]). Also, the MIC in series [1] (setting [6]) is 3.25/3.25 ∞g; in series [1] (setting [7]), 0.78 ∞g; in series [1] (setting [8]) it was 3.25/3.25 ∞g; in series [1] (setting [9]), 3.25/3.25 ∞g; in series [1] (MSSA table, isolate MRSA#55), 3.25/3.25 ∞g; in series [1] (setting [10]), 1.56 ∞g. The MIC in series [1] (setting [11]) was 0.78 ∞g; in series [1] (setting [12]) it was 3.25/3.25 ∞g; in series [1] (setting [13]) it was 0.78 ∞g; in series [1] (strain BAA 1721), 0.78 ∞g. The “lowest dose at which no MSSA growth was observed (growth curve)” value with S. aureus MSSA strains came out at 6.25 µg.

As for “Compound IV: PNA-CPP conjugate: PNA SEQ ID NO: 51, AEEA linker, homo-arginine CPP BXhRXhRhRXhRhRXhRhRXhR; FIG. 4 (CGTCATACGCGGTCC; all peptide nucleic acid (PNA); homo-arginine cell-penetrating peptide attached via AEEA linker, further chemistry not fully specified)”, the “lowest dose at which no MSSA growth was observed (growth curve)” value with S. aureus MSSA strains amounted to 6.25 µg. The “MRSA CFU counts and emergence of resistant strains” value in the series with MRSA is listed as “reduced MRSA CFUs without emergence of resistant strains”. In the series on MSSA, the “MSSA CFU counts and emergence of resistant strains” value is given as “reduced MSSA CFUs without emergence of resistant strains”. Further, the tolerability in mice entry in series [4] was “well tolerated”.

For the molecule “Compound V: PNA-CPP conjugate: PNA SEQ ID NO: 51, AEEA linker, D-arginine CPP BXdRXdRdRXdRdRXdRdRXdR; FIG. 5 (CGTCATACGCGGTCC; all peptide nucleic acid (PNA); PNA conjugated to D-arginine cell-penetrating peptide via AEEA linker, end not given here, further chemistry not fully specified)”, in the series on S. aureus MSSA strains, the “lowest dose at which no MSSA growth was observed (growth curve)” value worked out at 25 µg.
